Data as given in ChEMBL document CHEMBL3352398, “2-(2-Bromophenyl)-formononetin and 2-heptyl-formononetin are PPARγ partial agonists and reduce lipid accumulation in 3T3-L1 adipocytes” (Bioorg Med Chem, 2014).
pIC50: −log10 of the molar value. The source made the active and inactive calls.

What was measured:
3T3-L1 [1] = assay: Reduction of adipogenesis in mouse 3T3L1 cells assessed as decrease in lipid accumulation measured on day 8 by fluorescence-based AdipoRed assay; assay type: functional, cell-based
3T3-L1 [2] = assay: Effect on adipogenesis in mouse 3T3L1 cells assessed as increase in Srebf1 gene expression at 5 to 50 uM after 8 days by real time quantitative PCR analysis relative to vehicle-treated control; assay type: functional, cell-based
3T3-L1 [3] = assay: Effect on adipogenesis in mouse 3T3L1 cells assessed as reduction in Fabp4 gene expression at 5 to 50 uM after 8 days by real time quantitative PCR analysis relative to vehicle-treated control; assay type: functional, cell-based
3T3-L1 [4] = assay: Effect on adipogenesis in mouse 3T3L1 cells assessed as reduction in Pparg gene expression at 5 to 50 uM after 4 days by real time quantitative PCR analysis relative to vehicle-treated control; assay type: functional, cell-based
3T3-L1 [5] = assay: Effect on adipogenesis in mouse 3T3L1 cells assessed as reduction in Srebf1 gene expression at 5 to 50 uM after 4 days by real time quantitative PCR analysis relative to vehicle-treated control; assay type: functional, cell-based
3T3-L1 [6] = assay: Effect on adipogenesis in mouse 3T3L1 cells assessed as reduction in Fabp4 gene expression at 5 to 50 uM after 4 days by real time quantitative PCR analysis relative to vehicle-treated control; assay type: functional, cell-based
3T3-L1 [7] = assay: Reduction in triglyceride release in mouse 3T3L1 cells at 50 uM after 48 hrs by fluorescence-based AdipoRed assay; assay type: functional, cell-based
3T3-L1 [8] = assay: Reduction in triglyceride release in mouse 3T3L1 cells at 50 uM after 48 hrs by oil red o assay; assay type: functional, cell-based
3T3-L1 [9] = assay: Reduction in lipogenesis in mouse 3T3L1 cells assessed as down regulation of Srebf1 gene exression by real time-qPCR analysis; assay type: functional, cell-based
3T3-L1 [10] = assay: Induction of lipolysis in mouse 3T3L1 cells assessed as up-regulation of Acox1 gene exression by real time-qPCR analysis; assay type: functional, cell-based
[11] = target: T1, Peroxisome proliferator-activated receptor gamma (Homo sapiens, UniProt P37231); assay: Competitive binding to human GST-tagged PPAR-gamma by TR-FRET assay
T1 sequence (P37231 whole entry): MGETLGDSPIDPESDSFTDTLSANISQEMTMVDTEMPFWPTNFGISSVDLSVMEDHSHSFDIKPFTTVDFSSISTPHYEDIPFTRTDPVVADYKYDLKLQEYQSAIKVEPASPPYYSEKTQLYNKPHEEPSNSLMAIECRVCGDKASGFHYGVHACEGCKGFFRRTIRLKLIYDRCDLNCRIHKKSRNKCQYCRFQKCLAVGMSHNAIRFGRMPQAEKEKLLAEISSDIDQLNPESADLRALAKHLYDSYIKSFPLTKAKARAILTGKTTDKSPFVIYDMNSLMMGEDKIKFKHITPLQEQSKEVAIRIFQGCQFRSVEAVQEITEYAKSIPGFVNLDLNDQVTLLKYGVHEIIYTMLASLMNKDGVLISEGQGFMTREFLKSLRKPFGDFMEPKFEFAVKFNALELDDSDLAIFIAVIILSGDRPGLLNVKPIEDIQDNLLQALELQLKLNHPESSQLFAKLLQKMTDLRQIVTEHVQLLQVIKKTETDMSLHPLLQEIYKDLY

[12] = target: T2, Peroxisome proliferator-activated receptor gamma (Mus musculus) (UniProt P37238); assay: Agonist activity at PPAR-gamma in mouse embryo fibroblast at 5 to 50 uM by transactivation assay relative to rosiglitazone
T2 sequence (whole entry): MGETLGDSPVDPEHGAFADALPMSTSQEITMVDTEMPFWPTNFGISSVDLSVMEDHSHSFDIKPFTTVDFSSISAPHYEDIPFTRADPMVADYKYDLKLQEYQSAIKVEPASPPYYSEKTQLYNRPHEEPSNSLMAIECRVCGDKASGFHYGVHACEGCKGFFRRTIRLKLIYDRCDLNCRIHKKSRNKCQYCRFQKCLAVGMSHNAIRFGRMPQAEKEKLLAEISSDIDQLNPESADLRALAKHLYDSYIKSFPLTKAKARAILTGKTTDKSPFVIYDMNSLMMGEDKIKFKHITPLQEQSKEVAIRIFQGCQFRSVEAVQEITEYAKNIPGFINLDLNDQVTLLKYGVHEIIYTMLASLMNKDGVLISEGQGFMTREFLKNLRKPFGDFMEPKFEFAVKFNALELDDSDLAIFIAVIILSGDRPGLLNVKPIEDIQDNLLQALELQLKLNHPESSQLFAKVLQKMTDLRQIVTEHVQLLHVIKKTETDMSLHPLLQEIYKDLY

[13] = target: T2, Peroxisome proliferator-activated receptor gamma (Mus musculus); assay: Agonist activity at PPAR-gamma in mouse embryo fibroblast by transactivation assay relative to rosiglitazone
[14] = target: T3, Peroxisome proliferator-activated receptor alpha (Homo sapiens) (UniProt Q07869); assay: Agonist activity at PPAR-alpha (unknown origin) by transactivation assay
T3 sequence (whole entry): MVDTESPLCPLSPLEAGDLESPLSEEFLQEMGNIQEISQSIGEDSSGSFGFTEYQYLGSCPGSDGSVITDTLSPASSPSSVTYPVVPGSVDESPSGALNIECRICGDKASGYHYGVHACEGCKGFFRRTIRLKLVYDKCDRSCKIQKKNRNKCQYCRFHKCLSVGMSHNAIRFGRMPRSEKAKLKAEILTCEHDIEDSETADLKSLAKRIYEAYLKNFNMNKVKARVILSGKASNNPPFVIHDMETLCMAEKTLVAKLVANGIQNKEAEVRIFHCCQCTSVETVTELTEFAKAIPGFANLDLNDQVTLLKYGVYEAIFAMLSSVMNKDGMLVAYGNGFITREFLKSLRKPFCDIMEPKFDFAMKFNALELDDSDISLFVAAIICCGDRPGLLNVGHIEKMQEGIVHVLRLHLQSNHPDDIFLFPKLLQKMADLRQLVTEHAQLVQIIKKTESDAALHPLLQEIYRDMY

[15] = target: T4, Peroxisome proliferator-activated receptor delta (Homo sapiens) (UniProt Q03181); assay: Agonist activity at PPAR-delta (unknown origin) by transactivation assay
T4 sequence (whole entry): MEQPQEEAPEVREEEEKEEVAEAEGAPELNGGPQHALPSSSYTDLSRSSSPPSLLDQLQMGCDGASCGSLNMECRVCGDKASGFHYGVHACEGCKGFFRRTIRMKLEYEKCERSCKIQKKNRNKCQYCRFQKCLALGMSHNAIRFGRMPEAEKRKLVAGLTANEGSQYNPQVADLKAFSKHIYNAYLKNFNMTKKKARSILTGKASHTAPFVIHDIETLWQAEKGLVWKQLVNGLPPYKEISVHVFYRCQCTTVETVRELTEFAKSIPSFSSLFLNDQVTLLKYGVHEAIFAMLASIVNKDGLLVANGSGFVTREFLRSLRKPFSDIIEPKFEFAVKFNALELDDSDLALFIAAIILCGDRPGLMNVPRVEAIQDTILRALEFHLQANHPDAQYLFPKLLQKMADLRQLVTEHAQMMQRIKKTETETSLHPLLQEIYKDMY

3T3-L1 [16] = assay: Activation of AMPK in mouse 3T3L1 cells assessed as AMPK phosphorylation at 50 uM after 5 to 48 hrs by Western blotting analysis; assay type: cell-based
[17] = Effect on adipogenesis in mature mouse 3T3L1 cells assessed as upregulation of Sirt1 gene expression; assay type: functional, cell-based; conditions: 3T3-L1

CCCCCCCc1oc2cc(O)ccc2c(=O)c1-c1ccc(OC)cc1
active: Activity (3T3-L1 [1]) Dose-dependent effect | Activity (3T3-L1 [2]) Dose-dependent effect | Activity (3T3-L1 [4]) Dose-dependent effect | Activity (3T3-L1 [5]) Dose-dependent effect | Activity (3T3-L1 [7]) | Activity (3T3-L1 [8]) | Activity (3T3-L1 [9]) | Activity (3T3-L1 [10]) | Activity [13] Dose-dependent effect
5.30: pIC50 [11]
inactive: Activity (3T3-L1 [3]) | Activity (3T3-L1 [6]) | Activity [14] | Activity [15] | Activity (3T3-L1 [16]) | Activity [17]
33%: Activity [12]
